Data from patent US5798372A, “Method for preventing onset of restenosis after angioplasty employing a retinoid” (Allergan, priority 1997, dated 1998).

Tests used:
[1] = test system: endothelial cells (canine aorta); assay: Serum (1%)-induced endothelial cell proliferation, 3H-thymidine incorporation; format: cell-based; details: Canis lupus familiaris, Endothelial cell; serum induced; Table 3; read-out: ED50 FOR ENDOTHELIAL Cells, Serum
Procedure: (§1) The effect of 1% serum on DNA synthesis by endothelial or smooth muscle cells using ^3 H-thymidine incorporation was measured. For measuring the effectiveness of retinoids in inhibiting endothelial or smooth muscle cell proliferation induced by certain mitogens, i.e., serotonin or β-FGF the indicated concentrations were added to the media instead of 1% serum. Primary cells isolated from canine aorta were used for these studies. Unlike the typical cell lines (e.g. NIH 3T3 cells, etc.) 6-7 weeks are required to isolate and grow these primary cells in sufficient number to perform a single experiment. For the following studies, the primary cells (passages 2-4) were plated on 35×10 mm tissue culture dishes in 10% fetal bovine serum (FBS) and incubated. After 72 hours of growth the medias was replaced with 0.1% FBS for synchronization and incubated for additional 72 hours. Then 1% serum was added and incubated for 20 hours followed by the addition of 1μCi of ^3 H-thymidine. Four hours after the addition of 3H-thymidine the DNA was precipitated and the amount of ^3 H-thymidine incorporated was measured. This value is reported as the serum or serotonin or β-FGF stimulated value for cellular proliferation and is expressed as a percentage of baseline ^3 H-thymidine incorporation.
(§2) To examine the antiproliferative effect of retinoids, they were dissolved in 100% ethanol and then added at the indicated final concentrations. The compounds were added at the time of adding 1% serum or serotonin or β-FGF to stimulate the cells. (The maximal final concentration of ethanol in culture media was 1% which is non-cytotoxic to endothelial or smooth muscle cells). After 20 hours of incubation with retinoids and 1% serum or serotonin or β-FGF, the ^3 H-thymidine incorporation was measured.
(§3) In this experimental dosages ranging between 0.01 and 100 μM were evaluated for the effect of AGN 191183 on cell growth.
(§4) The other retinoids, disclosed above, were also tested for their effect on smooth muscle and endothelial cell growth at the same dosages as for AGN 191183. Table 2 reports the ED50 for each of these retinoids.

[2] = test system: endothelial cells (canine aorta); assay: Serotonin-induced endothelial cell proliferation, 3H-thymidine incorporation; format: cell-based; details: Canis lupus familiaris, Table 3, read-out: ED50 FOR ENDOTHELIAL Cells, Serotonin
Procedure: as §1
as §2, with “(The maximal final concentration of ethanol in culture media was 1% which is non-cytotoxic to endothelial or smooth muscle cells).” left out
(§5) Certain of the retinoids were then tested for mitogen-induced cellular proliferation, utilizing serotonin (5HT) and β-FGF as such mitogens. In this testing, as reported in Table 3, below, the same dosages were evaluated for their effect on mitogen-induced cellular proliferation (The results are reported as ED50 and compared to the ED50 for serum-induced smooth muscle and endothelial cell growth).

[3] = test system: smooth muscle cells (canine aorta); assay: β-FGF-induced smooth muscle cell proliferation, 3H-thymidine incorporation; format: cell-based; details: Canis lupus familiaris, Table 3, read-out: ED50 FOR SMOOTH MUSCLE CELLS, β-FGF
Procedure: as §1
as §2, with “(The maximal final concentration of ethanol in culture media was 1% which is non-cytotoxic to endothelial or smooth muscle cells).” left out
as §5

[4] = test system: smooth muscle cells (canine aorta); assay: Serotonin-induced smooth muscle cell proliferation, 3H-thymidine incorporation; format: cell-based; details: Canis lupus familiaris, Table 3, read-out: ED50 FOR SMOOTH MUSCLE CELLS, Serotonin
Procedure: as §1
as §2, with “(The maximal final concentration of ethanol in culture media was 1% which is non-cytotoxic to endothelial or smooth muscle cells).” left out
as §5

[5] = test system: endothelial cells (canine aorta); assay: β-FGF-induced endothelial cell proliferation, 3H-thymidine incorporation; format: cell-based; details: Canis lupus familiaris, Table 3, read-out: ED50 FOR ENDOTHELIAL Cells, β-FGF
Procedure: as §1
as §2, with “(The maximal final concentration of ethanol in culture media was 1% which is non-cytotoxic to endothelial or smooth muscle cells).” left out
as §5

[6] = test system: cellular proliferation at the site of vascular injury (balloon angioplasty); assay: Rabbit model of angioplasty-induced arterial injury, in vivo 3H-thymidine incorporation; design: species or system New Zealand white rabbits; details: 10 mg/kg IP daily
Excerpt: There has been interest in attempting to reduce the incidence of restenosis by minimizing the trauma of angioplasty. […] However, a similar relationship between the degree of injury and restenosis has not been documented with conventional balloon angioplasty. In order to better characterize the time course and degree of cellular proliferation resulting from vascular injury, the effect of retinoids on the in vivo incorporation of 3H-thymidine in a rabbit model of arterial injury was studied. Varying degrees of injury were produced including both simple de-endothelialization of the intima as well as stretch injury of the vessel by conventional angioplasty.
3.0-3.5 kg male, New Zealand white rabbits underwent standardized femoral artery injury. Arterial access was obtained through the right carotid artery which was ligated after the procedure. Heparin (100 U/kg IV) was given once arterial access was obtained. Injury was accomplished by the following method:
1. […]
Arterial specimens were then thawed and stripped of all adventitia. […] The samples were neutralized with 0.5N HCl and counted using multisol scintillation fluid.
Using the above described model of angioplasty induced restenosis it was determined whether chronic treatment with all trans retinoic acid can attenuate the cellular proliferation of the site of vascular injury. […]

[7] = test system: smooth muscle cells (canine aorta); assay: Serum (1%)-induced smooth muscle cell proliferation, 3H-thymidine incorporation; format: cell-based; details: Canis lupus familiaris; serum induced; Table 3; read-out: ED50 FOR SMOOTH MUSCLE CELLS, Serum
Procedure: as §1, §2, §3, §4

For `CC1=C(/C=C/C(C)=C/C=C/C(C)=C/C(=O)O)C(C)(C)CCC1` [AGN 100335, (E)-3,7-dimethyl-9-(2,6,6-trimethyl-1-cyclohexen-1-yl)-2,4,6,8-nonatetraenoic acid], the IC50 [1] was 28000 nM, the IC50 [2] was 25 nM and the IC50 [3] was greater than 100000 nM. The IC50 [4] was 47 nM, the IC50 [5] was 9 nM and the “animals receiving retinoic acid that died before the study was completed” value [6] was 2 out of 4. For the same compound, the “inhibition of cellular proliferation following angioplasty” value ([6]; 6 days pretreatment and days 7-9, very small number of animals) was “appeared to inhibit the development of cellular proliferation following angioplasty” and the IC50 [7] was 35800 nM.
